Measurements: patent publication US20250339569A1, “CARBONIC ANHYDRASE IX LIGANDS” (priority 2021, published 2025)
Read-outs that look alike come from different tables or passages of the source.

Key:
[1] = target: T1, CAIX-expressing human HT-29 colorectal cancer cells (Homo sapiens, UniProt Q16790); assay: FACS binding assay (IC50 determination, competition with tracer 3BP-2776 or 3BP-4149)
T1 construct: CAIX-expressing human HT-29 colorectal cancer cells; host or cells: HT-29 human colorectal cancer cells
Procedure, shortened: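 HT-29 cells in FACS buffer (PBS, 1% FCS) at 500.000 cells/ml were exposed to compounds competing with a labelled tracer, with biotinylated compounds detected by 1 μg/mL APC-streptavidin for 30 min on ice. APC/Cy5 median fluorescence was read by flow cytometry and IC50 derived by 4PL fit.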

CAXII (hCAXII-bio) = target: T2, CAXII (hCAXII-bio) (Homo sapiens, UniProt O43570); assay: SPR selectivity assay with biotinylated CAXII; assay type: binding
T2 construct: purchased SinoBliological (Sino Biological) 10617-H08H
Method: (§1) In order to test selectivity of CAIX-binding peptides toward CAIV (SinoBliological, Cat #10472-1H081H), CAXII (SinoBliological, Cat #10617-H08H or CAXIV (SinoBliological, Cat #10458-H08H), SPR assays were performed analog to the assay described above but with a different target capture procedure. For immobilization, the carbonic anhydrases were biotinylated and capture on the SPR chip using the Biotin CAPture Kit (cytiva) according to the manufacturer instructions using HBSTE, 0.1% as Running Buffer.
(§2) Table 13 describes the protocol steps for biotinylated target capturing and assessment of the binding kinetics.

CAIV (hCAIV-bio) = target: T3, CAIV (hCAIV-bio) (Homo sapiens, UniProt P22748); assay: SPR selectivity assay with biotinylated CAIV; assay type: binding
T3 construct: purchased SinoBliological (Sino Biological) 10472-1H081H
Method: as §1, §2

mouse CAIX = target: T4, mouse CAIX (Mus musculus, UniProt Q8VHB5); assay: Radioligand binding assay, 111In-labeled compounds, CHO-VGT cells with mouse CAIX
T4 construct: host or cells: CHO-VGT / CHO cells
Method: (§3) In order to assess the affinity of ^111In-labeled compounds to CAIX of different species, a radioligand binding assay was established.
(§4) CHO-VGT cells were transfected with the human, dog, and mouse CAIX (InSCREENex GmbH) and cultured in Ham's F-12 medium (Sigma-Aldrich #N4888) supplemented with 10% fetal bovine serum (FCS), 2 mM L-glutamine, 100 U/mL Penicillin, and 0.1 mg/mL streptomycin. Cells were detached with Accutase (Biolegend #423201) and counted using a particle counter (CASY Model TT; Scharfe Systems, Germany). Cell concentrations were adjusted to 3×10^5 mL^−1, and 1.000 μL of the suspension per well were dispensed into flat-clear-bottom 24 well plates.
(§5) Approximately 24 hours after re-seeding, the medium was aspirated and the cells were washed once with 1000 μL assay medium (Ham's medium without additives). To determine total binding, 700 μL of assay medium and 100 μL of the radioligand dilutions were added to the wells in triplicates. To determine non-specific binding, 600 μL of binding medium, 100 μL of the radioligand dilutions and 100 μL of a blocking solution containing 8 μM non-labeled compound were added to the wells in triplicates. At the end of incubation time (8 h at 37° C.), cells were washed and subsequently harvested in 300 μL RIPA buffer (Thermo Scientific #89901) containing Protease Inhibitor Cocktail Set I (Calbiochem #539131). Radioactivity of the cell lysate of each well was counted using a gamma counter (1470 Wizard, PerkinElmer, USA). An aliquot of each radioligand dilution was included in the gamma counter measurements to allow for determination of their actual concentrations via their known specific activity.

[2] = target: T5, human carbonic anhydrase IX (hCAIX-Fc) (Homo sapiens, UniProt Q16790); assay: Surface plasmon resonance assay with hCAIX-Fc; assay type: binding; conditions: for t1/2 category (activity): SPR dissociation half-life, hCAIX-Fc; for t1/2 category (activity) / Kd: 25° C.; for pKD category (affinity) CAIX / Kd: SPR; for pKD category (affinity) CAIX: hCAIX; for Kd: hCAIX-Fc captured, read-out: pKD category (activity) (converted)
T5 construct: purchased SinoBliological (Sino Biological) 10107-H02H

CAXIV (hCAXIV-bio) = target: T6, CAXIV (hCAXIV-bio) (Homo sapiens, UniProt Q9ULX7); assay: SPR selectivity assay with biotinylated CAXIV; assay type: binding
T6 construct: purchased SinoBliological (Sino Biological) 10458-H08H
Method: as §1, §2

dog CAIX = assay: Radioligand binding assay, 111In-labeled compounds, CHO-VGT cells with dog CAIX; conditions: 111In-labeled compound, 8 h at 37°C
Method: as §3, §4, §5

human CAIX = human CAIX (Homo sapiens, UniProt Q16790); assay: Radioligand binding assay, 111In-labeled compounds, CHO-VGT cells with human CAIX; parameters: host or cells: CHO-VGT / CHO cells
Method: as §3, §4, §5

T6 sequence (Q9ULX7 16-337): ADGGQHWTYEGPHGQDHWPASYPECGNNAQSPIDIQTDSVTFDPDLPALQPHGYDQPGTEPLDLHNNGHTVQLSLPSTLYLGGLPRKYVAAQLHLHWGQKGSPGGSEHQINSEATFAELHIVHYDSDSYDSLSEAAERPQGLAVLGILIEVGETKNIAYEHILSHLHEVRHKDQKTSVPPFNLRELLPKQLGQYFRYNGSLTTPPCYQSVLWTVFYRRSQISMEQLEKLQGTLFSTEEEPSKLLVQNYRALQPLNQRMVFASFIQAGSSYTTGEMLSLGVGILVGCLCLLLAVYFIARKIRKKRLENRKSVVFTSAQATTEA
T3 sequence (P22748 19-284): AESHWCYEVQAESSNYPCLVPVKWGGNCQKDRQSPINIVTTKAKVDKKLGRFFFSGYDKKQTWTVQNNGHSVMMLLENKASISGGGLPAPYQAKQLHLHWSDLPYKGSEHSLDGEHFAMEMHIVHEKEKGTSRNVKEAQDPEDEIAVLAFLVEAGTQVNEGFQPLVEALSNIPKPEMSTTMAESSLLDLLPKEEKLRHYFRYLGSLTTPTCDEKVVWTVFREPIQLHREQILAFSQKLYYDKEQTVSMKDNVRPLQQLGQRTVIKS
T4 sequence (Q8VHB5 32-437): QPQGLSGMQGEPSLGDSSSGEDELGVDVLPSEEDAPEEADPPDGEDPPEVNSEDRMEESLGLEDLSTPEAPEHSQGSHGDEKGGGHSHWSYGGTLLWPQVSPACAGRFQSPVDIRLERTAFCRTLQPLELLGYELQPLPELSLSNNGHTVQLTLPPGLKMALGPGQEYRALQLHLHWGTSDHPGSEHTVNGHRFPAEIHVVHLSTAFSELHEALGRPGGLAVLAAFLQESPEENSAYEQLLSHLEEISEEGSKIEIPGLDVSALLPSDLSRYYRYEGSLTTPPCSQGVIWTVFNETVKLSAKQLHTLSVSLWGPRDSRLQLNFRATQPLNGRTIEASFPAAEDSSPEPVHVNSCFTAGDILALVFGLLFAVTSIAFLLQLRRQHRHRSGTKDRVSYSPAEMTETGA
T2 sequence (O43570 25-354): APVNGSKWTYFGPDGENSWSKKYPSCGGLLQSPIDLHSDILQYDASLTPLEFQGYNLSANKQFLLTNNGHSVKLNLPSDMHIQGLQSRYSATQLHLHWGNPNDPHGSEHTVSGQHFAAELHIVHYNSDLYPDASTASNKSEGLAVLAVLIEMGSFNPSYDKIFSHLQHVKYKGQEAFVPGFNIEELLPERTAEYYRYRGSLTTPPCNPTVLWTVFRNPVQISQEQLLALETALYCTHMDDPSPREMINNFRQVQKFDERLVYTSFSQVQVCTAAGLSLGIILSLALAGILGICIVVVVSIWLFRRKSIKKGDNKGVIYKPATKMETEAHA

Row | SMILES | IC50 [1] [nM] | Kd (CAXII (hCAXII-bio)) [nM] | Kd (CAIV (hCAIV-bio)) [nM] | Kd (mouse CAIX) [nM] | t1/2 category (activity) [2] | pKD category (affinity) CAIX [2] | Kd [2] [nM] | Kd (CAXIV (hCAXIV-bio)) [nM] | pKD category (activity) (dog CAIX) | Kd (human CAIX) [nM] | IC50 ([1]; FACS binding assay, HT-29 cells, competition with tracer 3BP-2776 (10 nM, biotin-labeled), 4° C., 1 hour, read-out: pIC50 category (activity) (converted)) [nM] | Kd (CAXII (hCAXII-bio); SPR, biotinylated CAXII, read-out: pKD category (affinity) CAXII (converted)) [nM] | Kd (CAIV (hCAIV-bio); SPR, biotinylated CAIV, read-out: pKD category (affinity) CAIV (converted)) [nM] | Kd (mouse CAIX; 111In-labeled compound, Mouse CAIX, 8 h at 37°C, read-out: pKD category (activity) (converted)) [nM] | Kd (CAXIV (hCAXIV-bio); SPR, biotinylated CAXIV, read-out: pKD category (affinity) CAXIV (converted)) [nM] | Kd (human CAIX; 111In-labeled compound, Human CAIX, 8 h at 37°C, read-out: pKD category (activity) (converted)) [nM]
1 | CC(C)C[C@@H]1NC(=O)[C@H](Cc2cccc(NC(=O)CCCS(N)(=O)=O)c2)NC(=O)[C@H](CC(=O)O)NC(=O)[C@H]2CCCN2C(=O)[C@H](CCC(=O)O)NC(=O)[C@@H](NC(=O)[C@H](CCC(N)=O)NC(=O)CN2CCN(C(=O)CN3CCN(CC(=O)O)CCN(CC(=O)O)CCN(CC(=O)O)CC3)CC2)CSCc2cccc(c2)CSC[C@@H](C(N)=O)NC(=O)[C@H](CO)NC(=O)[C@H](Cc2c[nH]c3ccccc23)NC(=O)[C@H]([C@@H](C)O)NC1=O [3BP-4452, DOTA-PPAc-Gln-[Cys(3MeBn)-Glu-pro-Asp-Af3(Cpsu)-Leu-Thr-Trp-Ser-Cys]-NH2] | < 10 | > 1000 | > 1000 | 10 to 79.4 | A (t1/2>15.0 minutes) | A (pKD values >8.0) | < 10 | > 1000 | A (pKD values >8.0) | < 10 | – | – | – | – | – | –
2 | CC(C)C[C@@H]1NC(=O)[C@H](Cc2ccc(NC(=O)CCS(N)(=O)=O)cc2)NC(=O)[C@H](CC(=O)O)NC(=O)[C@H]2CCCN2C(=O)[C@H](CCC(=O)O)NC(=O)[C@@H](NC(=O)[C@H](CCC(N)=O)NC(=O)CN2CCN(CC(=O)O)CCN(CC(=O)O)CCN(CC(=O)O)CC2)CSCc2cccc(c2)CSC[C@@H](C(N)=O)NC(=O)[C@H](CO)NC(=O)[C@H](Cc2c[nH]c3ccccc23)NC(=O)[C@H]([C@@H](C)O)NC1=O [3BP-4501, DOTA-Gln-[Cys(3MeBn)-Glu-pro-Asp-Aph(SaPr)-Leu-Thr-Trp-Ser-Cys]-NH2] | – | – | – | – | A (t1/2>15.0 minutes) | A (pKD values >8.0) | < 10 | – | A (pKD values >8.0) | – | < 10 | > 1000 | > 1000 | 10 to 79.4 | > 1000 | < 10
